The text below walks through data of PubChem BioAssay AID1996.

In brackets after ≈: the same amount, converted by molar mass.

The conditions of the series: buffer; pH 7.4; 200.0 µM.
In turn, `COc1cc(C(=O)NCCOc2ccccc2)cc(OC)c1OC` gave a solubility (kinetic) of over 49.7 µg/mL.
The same measure for `C=CCN1C(=O)C(=O)N(Cc2nc3ccccc3s2)C1=O`: over 45.2 µg/mL.
The value for `CN1CCN(c2ccccc2/C=N/NC(=O)c2cccnc2)CC1` was over 48.5 µg/mL; that for `COc1ccc(CNc2ccc(C)c(C)c2)cc1` was 1.5 µg/mL (≈ 6.22 µM); that for `CCOCCCNC(=S)N1CCC(C(=O)c2ccc(C)cc2)CC1` was 51.8 µg/mL (≈ 149 µM).
The same measure for `CSc1ncccc1C(=O)OCC(=O)Nc1cccc(S(=O)(=O)N2CCOCC2)c1`: 34.7 µg/mL (≈ 76.9 µM).
`Cc1ncc([N+](=O)[O-])n1CC(=O)Nc1ccc(F)c(F)c1` returned a solubility (kinetic) of 6.4 µg/mL (≈ 21.6 µM).
The value for `COc1ccc(Cn2c(=S)[nH]c3ccccc3c2=O)cc1` was under 0.3 µg/mL; that for `CCN1C(=O)CC(C(=O)OC)=C1C` was 24.6 µg/mL (≈ 134 µM).
The value for `O=C(C1CC2C=CC1C2)N1CCN(c2ccccc2)CC1` (configuration not stated) was over 42.4 µg/mL; that for `Cc1cc(=O)oc2cc(NC(=O)Cc3ccccc3)ccc12` was 1.1 µg/mL (≈ 3.75 µM); that for `O=C(Cc1ccccc1)NCC(=O)N1CCc2ccccc2C1` was over 46.3 µg/mL.
Regarding `O=C(NC(=S)Nc1cccnc1Cl)c1ccc(F)cc1`, the solubility (kinetic) was 6.4 µg/mL (≈ 20.7 µM).
The value for `C=CCn1c(O)c(/C=C2\C=Nc3ccccc32)c(=O)[nH]c1=O` was 4 µg/mL (≈ 13.5 µM); that for `Cc1ccc(S(=O)(=O)N(C)CC(=O)OCC(=O)NCCc2ccc(S(N)(=O)=O)cc2)cc1` was over 72.5 µg/mL.
`O=C(Cc1ccc(Br)cc1)N1CCc2ccccc2C1` had a solubility (kinetic) of 3.9 µg/mL (≈ 11.8 µM).
The same measure for `O=C(NC1=NCCS1)c1ccccc1Br`: over 42.8 µg/mL; for `Cc1ccc(OCCCn2ccnc2)c(Br)c1`: 30.8 µg/mL (≈ 104 µM).
The value for `O=C(NCc1ccco1)c1cccc(C(F)(F)F)c1` was over 40.4 µg/mL.
`Cc1ccc(Oc2ncnc(N)c2[N+](=O)[O-])cc1C`: the solubility (kinetic) is 4.8 µg/mL (≈ 18.4 µM).
The same measure for `CCCN1C(=O)CC(Sc2ncccc2C(=O)O)C1=O` (configuration not stated): 42.5 µg/mL (≈ 144 µM); for `O=C(Cc1cccs1)Nc1ccc(F)cc1F`: 30 µg/mL (≈ 118 µM); for `O=C(CNC(=O)c1ccc(Br)o1)NCc1cccc(Cl)c1`: 55.5 µg/mL (≈ 149 µM).
The value for `O=C(O)CCC(NC(=S)Nc1ccccc1)C(=O)O` (configuration not stated) was over 42.3 µg/mL; that for `Cc1ccccc1NC(=O)CCN1CCN(C)CC1` was over 39.2 µg/mL; that for `CC(=O)c1ccc(OCc2ncc(C(F)(F)F)cc2Cl)cc1` was 23.6 µg/mL (≈ 71.6 µM).
The same measure for `COc1ccc(CCNCc2ccccc2)cc1.O=C(O)C(=O)O`: over 49.7 µg/mL; for `O=C(Nc1cc2c3c(c1)CC(=O)N3CCC2)c1ccc(Br)cc1`: 10.3 µg/mL (≈ 27.7 µM).
The molecule `COc1ccc(C2(c3ccc(OC)cc3)NC(=O)N(CC(=O)Nc3cc(C)on3)C2=O)cc1` showed a kinetic solubility of 27.4 µg/mL (≈ 60.8 µM).
The value for `Cc1cc(Cl)ccc1OCC(=O)NC(=S)Nc1ccc(Cl)cn1` was under 0.3 µg/mL; that for `O=C(Nc1ccc(Cl)c(Cl)c1)c1ccccc1NC(=O)C1CC=CCC1C(=O)O` (configuration not stated) was over 65 µg/mL; that for `N#Cc1ccc(C(=O)OCC(=O)N2CCCCCC2)cc1` was over 42.9 µg/mL.
The same measure for `CC(=O)Nc1ccccc1S(=O)(=O)CC1CC1(Cl)Cl` (configuration not stated): over 48.3 µg/mL; for `CCc1ccc(NC(=O)c2cnccn2)cc1`: 21.4 µg/mL (≈ 94.2 µM); for `CCCN1CCN(c2ccc(S(N)(=O)=O)cc2[N+](=O)[O-])CC1`: 32.9 µg/mL (≈ 100 µM).
The same measure for `CC1(C)Cc2c(sc(NC(=O)Cc3ccccc3)c2C#N)CO1`: 0.4 µg/mL (≈ 1.23 µM); for `CCC(CC)C(=O)c1c[nH]c(C(=O)NCc2cccs2)c1`: 4.4 µg/mL (≈ 14.5 µM); for `COc1ccc(OCC(=O)NC2CCCc3ccccc32)cc1` (configuration not stated): 42.4 µg/mL (≈ 136 µM).
Molecule `O=C1/C(=C/c2cccnc2)SC(=S)N1CCc1ccccc1` gave a solubility (kinetic) of under 0.3 µg/mL.
The value for `Cc1ccc(C)c(NC(=S)N2CCCC2)c1` was over 35.2 µg/mL; that for `NC(=O)CN1C(=O)NC2(CCCc3ccccc32)C1=O` (configuration not stated) was over 41 µg/mL.
The same measure for `COc1cccc(NC(=O)CN2CCCCCC2)c1.Cl`: 44.1 µg/mL.
The same measure for `Br.Cn1ccnc1SCC(=O)c1ccc(O)cc1`: over 49.4 µg/mL; for `COC(=O)c1cccc(-n2c(CCC(=O)O)ccc2-c2cccs2)c1`: over 53.3 µg/mL; for `NC(=O)c1cc(S(=O)(=O)NCc2cccs2)cs1`: 43.4 µg/mL (≈ 144 µM).
In the case of `O=C(Nc1ncccn1)c1cccc(Cl)c1`, the kinetic solubility was determined as 23.6 µg/mL (≈ 101 µM). Compared with the last molecule, the solubility kinetic is about 1.8-fold lower.
As for `CC(C(=O)O)c1ccc(N2Cc3ccccc3C2=O)cc1` (configuration not stated), the kinetic solubility is over 42.2 µg/mL.
The same measure for `CCNC(=O)NC(=O)CN(C)c1ccccc1`: over 35.3 µg/mL; for `Cc1[nH]c2ccc(C(=O)NCCN3CCCCCC3)cc2c1C`: over 47 µg/mL.
Molecule `CC(Oc1ccc(C#N)cc1)C(=O)NC1CCCC1` (configuration not stated) came in with a kinetic solubility of over 38.7 µg/mL.
The value for `N#Cc1ccc(C(=O)NC2CCCCCCC2)cc1` was over 38.5 µg/mL.
The value for `CCC(=O)c1ccc(OCC(=O)NCc2ccccc2CN2CCCC2)cc1` was over 57.1 µg/mL.

For orientation: kinetic solubility means solubility judged after dilution from a stock solution rather than from solid.
